Measured values: US8796292B2, “Selective antibacterials for clostridium difficile infections” (GLSynthesis Inc., priority 2009, dated 2014)
Values after ≈ are worked out from the molar mass of the structure shown. Where two headings read alike, the source gives them in different places.

Tests used:
[1] = tested on: L. casei; test: agar dilution MIC assay of anaerobic bacteria; type: cell-based, Lactobacillus casei; settings: Lacticaseibacillus casei, Strain no. 1722 (ATCC strain), Table 3
Procedure: (§1) Each compound was assayed against a panel of anaerobic bacteria in culture, consisting of Gram-positive organisms, such as Lactobacilli, Bifidobacteria, Clostridium spp., and Gram-negative bacteria, such as […] fragilis spp., according to guidelines of the Clinical and Laboratory Standards Institute (CLSI document M11-A7, CLSI, Wayne, Pa., 2007). […] One tenth mL of diluted bacteria containing 500-1000 colony-forming units (CFU) was plated and spread, and the plates incubated at 37° C. for 24-48 hours. MIC (minimum inhibitory concentration) is equivalent to the lowest concentration in μg/ml at which growth, i.e., colony formation, is not observed. […] Bacteria were assayed using a reference agar dilution method. Drug dilutions and drug-supplemented agar plates were prepared manually. The test organisms were maintained frozen at −80° C. The isolates were sub-cultured on Supplemented Brucella Agar (SBA) plates in a Bactron II anaerobic chamber and incubated for 48 hours at 35-36° C. in the Bactron II anaerobe chamber. Following inoculation, the drug-supplemented plates were incubated at 35° C. for 48 hours in the anaerobic environment (5% hydrogen, 5% carbon dioxide, 90% nitrogen) of the Bactron II. The MIC in μg/ml was read per Clinical and Laboratory Standards Institute guidelines.

[2] = tested on: Ba. fragilis; test: agar dilution MIC assay of anaerobic bacteria; type: cell-based; settings: Bacteroides fragilis, B. fragilis
Procedure: as §1

[3] = tested on: L. acidophilus; test: agar dilution MIC assay of anaerobic bacteria; type: cell-based; settings: Lactobacillus acidophilus, Strain no. 0681, Table 3
Procedure: as §1

[4] = tested on: Bi. brevi; test: agar dilution MIC assay of anaerobic bacteria; type: cell-based, Bifidobacterium brevi; settings: Bifidobacterium breve; Bi. Breve, Strain no. 3967 (ATCC strain), Table 3
Procedure: as §1

[5] = tested on: Bi. longum; test: agar dilution MIC assay of anaerobic bacteria; type: cell-based, Bifidobacterium longum; settings: Bifidobacterium longum; Bi. Longum, Strain no. 3968 (ATCC strain), Table 3; read-out: MIC
Procedure: as §1

[6] = tested on: E. lentum; test: agar dilution MIC assay of anaerobic bacteria; type: cell-based, Eubacterium lentum; settings: Eggerthella lenta; Eu. Lentum, Strain no. 1274 (ATCC strain), Table 3; read-out: MIC
Procedure: as §1

[7] = tested on: C. difficile; test: agar dilution MIC assay of anaerobic bacteria; type: cell-based, Clostridium difficile; settings: for MIC: Clostridioides difficile, read-out: MIC
Procedure: as §1

[8] = tested on: C. diff. (ATCC43255); test: clindamycin-induced C. diff. infection model in Syrian golden hamsters; type: in vivo; settings: for % Survivors at 120 hr / Survivors at 24 hr / Survivors at 48 hr / Survivors at 66 hr / Survivors at 72 hr / Survivors at 96 hr: n = 6 hamsters
Text: Compound 359E was given orally as a suspension in 1% carboxymethylcellulose to Syrian Golden hamsters, pretreated subcutaneously with clindamycin and infected orally with C. diff. (ATCC43255) as described in Table 5.

O=c1[nH]c(NCc2ccc(Cl)c(Cl)c2)nc2ncn(CCCCCN3CCOCC3)c12 [Compound 359E, 7-[5-(N-morpholinyl)pentyl]-2-(3,4-dichlorobenzylamino)-6-oxopurine]
MIC [1]: 16 µg/mL (≈ 34.4 µM) | MIC ([2]; Micromyx Number 0123 (ATCC strain), Table 2): > 32 µg/mL | MIC ([2]; Strain no. 0123 (ATCC strain), Gram-negative (control), Table 3): > 32 µg/mL | MIC [3]: 2 µg/mL (≈ 4.3 µM) | MIC [4]: > 32 µg/mL | MIC [5]: > 32 µg/mL | MIC [6]: > 32 µg/mL | MIC ([7]; C. diff. Strain no. 18285, Table 4): 8 µg/mL (≈ 17.2 µM) | MIC ([7]; C. diff. Strain no. 19265, Table 4): 8 µg/mL (≈ 17.2 µM) | MIC ([7]; C. diff. Strain no. 19273, Table 4): 8 µg/mL (≈ 17.2 µM) | MIC ([7]; C. diff. Strain no. 19281, Table 4): 8 µg/mL (≈ 17.2 µM) | MIC ([7]; C. diff. Strain no. 19291, Table 4): 4 µg/mL (≈ 8.6 µM) | MIC ([7]; C. diff. Strain no. 19369, Table 4): 8 µg/mL (≈ 17.2 µM) | MIC ([7]; C. diff. Strain no. 19382, Table 4): 2 µg/mL (≈ 4.3 µM) | MIC ([7]; C. diff. Strain no. 19540, Table 4): 4 µg/mL (≈ 8.6 µM) | MIC ([7]; C. diff. Strain no. 19580, Table 4): 2 µg/mL (≈ 4.3 µM) | MIC ([7]; C. diff. Strain no. 19680, Table 4): 8 µg/mL (≈ 17.2 µM) | MIC ([7]; C. diff. Strain no. 19681, Table 4): 8 µg/mL (≈ 17.2 µM) | MIC ([7]; C. diff. Strain no. 19683, Table 4): 8 µg/mL (≈ 17.2 µM) | MIC ([7]; C. diff. Strain no. 19687, Table 4): 8 µg/mL (≈ 17.2 µM) | MIC ([7]; C. diff. Strain no. 20066, Table 4): 8 µg/mL (≈ 17.2 µM) | MIC ([7]; C. diff. Strain no. 20152, Table 4): 8 µg/mL (≈ 17.2 µM) | MIC ([7]; C. diff. Strain no. 20307, Table 4): 8 µg/mL (≈ 17.2 µM) | MIC ([7]; C. diff. Strain no. 20494, Table 4): 8 µg/mL (≈ 17.2 µM) | MIC ([7]; C. diff. Strain no. 20680, Table 4): 8 µg/mL (≈ 17.2 µM) | MIC ([7]; C. diff. Strain no. 20934, Table 4): 2 µg/mL (≈ 4.3 µM) | MIC ([7]; C. diff. Strain no. 21099, Table 4): 8 µg/mL (≈ 17.2 µM) | MIC ([7]; C. diff., Micromyx Number 3579, Table 2): 2 µg/mL (≈ 4.3 µM) | MIC ([7]; C. diff., Micromyx Number 3580, Table 2): 2 µg/mL (≈ 4.3 µM) | MIC ([7]; C. diff., Micromyx Number 3581, Table 2): 2 µg/mL (≈ 4.3 µM) | MIC ([7]; C. diff., Micromyx Number 3582 (ATCC strain), Table 2): 2 µg/mL (≈ 4.3 µM) | MIC ([7]; C. diff., Strain no. 3580, Table 3): 4 µg/mL (≈ 8.6 µM) | MIC ([7]; C. diff., Strain no. 3581, Table 3): 2 µg/mL (≈ 4.3 µM) | MIC ([7]; C. diff., Strain no. 3582, Table 3): 8 µg/mL (≈ 17.2 µM) | MIC ([7]; C. diff., Strain no. 3584, Table 3): 2 µg/mL (≈ 4.3 µM) | MIC ([7]; C. diff., Strain no. 3585, Table 3): 4 µg/mL (≈ 8.6 µM) | MIC ([7]; C. diff., Strain no. 3586, Table 3): 2 µg/mL (≈ 4.3 µM) | MIC ([7]; C. diff., Strain no. 3587, Table 3): 4 µg/mL (≈ 8.6 µM) | MIC ([7]; C. diff., Strain no. 3588, Table 3): 0.5 µg/mL (≈ 1.07 µM) | MIC ([7]; C. diff., Strain no. 3589, Table 3): 4 µg/mL (≈ 8.6 µM) | MIC ([7]; C. diff., Strain no. 4381 (ATCC strain), Table 3): 2 µg/mL (≈ 4.3 µM) | potency and selectivity against C. diff. versus other Gram-positive anaerobes (in words) ([7]; summary of MIC panels, Tables 1 and 3): best profile | % Survivors at 120 hr ([8]; 25 mg/kg PO bid for 3 days): 100% | Survivors at 24 hr ([8]; 25 mg/kg PO bid for 3 days): 6 | Survivors at 48 hr ([8]; 25 mg/kg PO bid for 3 days): 6 | Survivors at 66 hr ([8]; 25 mg/kg PO bid for 3 days): 6 | Survivors at 72 hr ([8]; 25 mg/kg PO bid for 3 days): 6 | Survivors at 96 hr ([8]; 25 mg/kg PO bid for 3 days): 6 | % Survivors at 120 hr ([8]; 50 mg/kg PO bid for 3 days): 100% | Survivors at 24 hr ([8]; 50 mg/kg PO bid for 3 days): 6 | Survivors at 48 hr ([8]; 50 mg/kg PO bid for 3 days): 6 | Survivors at 66 hr ([8]; 50 mg/kg PO bid for 3 days): 6 | Survivors at 72 hr ([8]; 50 mg/kg PO bid for 3 days): 6 | Survivors at 96 hr ([8]; 50 mg/kg PO bid for 3 days): 6 | protection from lethal infection with C. diff. (in words) ([8]; oral suspension in 1% carboxymethylcellulose, twice daily): protected hamsters from lethal infection
